Key:
HFL-1 cells = assay: Radioprotection of cultured normal cells, colony count after ionizing radiation; type: cell-based, human; conditions: 2.5 to 20 micromolar for 24 hrs before 10 Gy or 15 Gy ionizing radiation, colonies vs DMSO control
Method: HFL-1 cells, which are normal diploid lung fibroblasts, were plated into 24 well dishes at a cell density of 3000 cells per 10 mm^2 in DMEM completed with 10% fetal bovine serum and antibiotics. The test compounds listed in Table 28 were added to the cells 24 hours later in select concentrations from 2.5 to 20 micromolar, inclusive, using DMSO as a solvent. Control cells were treated with DMSO alone. The cells were exposed to the test compound or DMSO for 24 hrs. The cells were then irradiated with either 10 Gy (gray) or 15 Gy of ionizing radiation (IR) using a J.L. Shepherd Mark I, Model 30-1 Irradiator equipped with ^137cesium as a source.
After irradiation, the medium on the test and control cells was removed and replaced with fresh growth medium without the test compounds or DMSO. The irradiated cells were incubated for 96 hours and duplicate wells were trypsinized and replated onto 100 mm^2 tissue culture dishes. The replated cells were grown under normal conditions with one change of fresh medium for 3 weeks. The number of colonies from each 100 mm^2 culture dish, which represents the number of surviving cells, was determined by staining the dishes as described below.
To visualize and count the colonies derived from the clonal outgrowth of individual radioprotected cells, the medium was removed and the plates were washed one time with room temperature phosphate buffered saline. The cells were stained with a 1:10 diluted Modified Giemsa staining solution (Sigma) for 20 minutes. The stain was removed, and the plates were washed with tap water. The plates were air dried, the number of colonies from each plate were counted and the average from duplicate plates was determined.
A “+” indicates radioprotective activity of between 2- and 4.5-fold at the concentrations tested. Fold protection was determined by dividing the average number of colonies from the test plates by the average number of colonies on the control plates.

C57 black mice = assay: Protection of mice from radiation toxicity by pre-treatment; type: in vivo
Method: C57 black mice age 10-12 weeks (Taconic) were divided into two treatment groups of 10 mice each. One group, designated the “200×2” group, received intraperitoneal injections of 200 micrograms (E)-4-carboxystyryl-4-chlorobenzylsulfone dissolved in DMSO (a 10 mg/Kg dose, based on 20 g mice) 18 and 6 hours before irradiation with 8 Gy gamma radiation. The other group, designated “500×2,” received intraperitoneal injections of 500 micrograms (E)-4-carboxystyryl-4-chlorobenzylsulfone dissolved in DMSO (a 25 mg/Kg dose, based on 20 g mice) 18 and 6 hours before irradiation with 8 Gy gamma radiation. A control group of 16 animals received 8 Gy gamma radiation alone.

rodent species = conditions: in vivo; cited from earlier work

Compound | Activity (radioprotective activity, fold protection) (HFL-1 cells) | other results
O=S(=O)(/C=C/c1ccc(F)cc1)Cc1ccc(Cl)cc1 [Compound 1, (E)-4-Fluorostyryl-4-chlorobenzylsulfone] | + (A “+” indicates radioprotective activity of between 2- and 4.5-fold at the concentrations tested) | –
O=S(=O)(/C=C\c1ccc(F)cc1)Cc1ccc(Cl)cc1 [Compound 7, (Z)-4-Fluorostyryl-4-chlorobenzylsulfone] | + (A “+” indicates radioprotective activity of between 2- and 4.5-fold at the concentrations tested) | –
O=S(=O)(/C=C/c1ccoc1)Cc1ccc(Cl)cc1Cl [Compound 8, (E)-3-Furanethenyl-2,4-dichlorobenzylsulfone] | + (A “+” indicates radioprotective activity of between 2- and 4.5-fold at the concentrations tested) | –
O=C(O)c1ccc(/C=C/S(=O)(=O)Cc2ccc(Cl)cc2)cc1 [Compound 13, (E)-4-Carboxystyryl-4-chlorobenzylsulfone] | + (A “+” indicates radioprotective activity of between 2- and 4.5-fold at the concentrations tested) | maximum mortality rate by day 40 (C57 black mice; “200×2” group: 10 mg/Kg intraperitoneal 18 and 6 hours before 8 Gy gamma radiation): approximately 60%; mice dead at day 20 (C57 black mice; “200×2” group: 10 mg/Kg intraperitoneal 18 and 6 hours before 8 Gy gamma radiation (control 80%)): about 50%; maximum mortality rate by day 40 (C57 black mice; “500×2” group: 25 mg/Kg intraperitoneal 18 and 6 hours before 8 Gy gamma radiation): about 50%; mice dead at day 20 (C57 black mice; “500×2” group: 25 mg/Kg intraperitoneal 18 and 6 hours before 8 Gy gamma radiation (control 80%)): about 30%
(E)-2,4,6-Trimethoxystyryl-4-methoxybenzylsulfone [Compound 2] | + (A “+” indicates radioprotective activity of between 2- and 4.5-fold at the concentrations tested) | –
(E)-4-Fluorostyryl-4-chlorophenylsulfone [Compound 10] | + (A “+” indicates radioprotective activity of between 2- and 4.5-fold at the concentrations tested) | –
(E)-4-Fluorostyryl-4-cyanobenzylsulfone [Compound 6] | + (A “+” indicates radioprotective activity of between 2- and 4.5-fold at the concentrations tested) | –
(E)-4-Fluorostyryl-4-trifluoromethylbenzylsulfone [Compound 5] | + (A “+” indicates radioprotective activity of between 2- and 4.5-fold at the concentrations tested) | –
(Z)-Styryl-(E)-2-methoxy-4-ethoxystyrylsulfone [Compound 11] | + (A “+” indicates radioprotective activity of between 2- and 4.5-fold at the concentrations tested) | –
Hydroxypropyl-B-Cyclodextrin [HPCD] | – | toxicity (rodent species): non-toxic
